From ChEMBL document CHEMBL1795213, “Design, synthesis and biological activity of novel peptidyl benzyl ketone FVIIa inhibitors” (Bioorg Med Chem Lett, 2011)
Converted amounts (≈) assume the structure as drawn.

What was measured:
[1] = Solubility of the compound in buffer; type: physicochemical
Coagulation factor VII [2] = biological target: T1, Coagulation factor VII (Homo sapiens, UniProt P08709); assay: Inhibition of recombinant F7a using S-2288 as substrate after 15 mins by linear fitting analysis
T1 sequence (P08709 whole entry): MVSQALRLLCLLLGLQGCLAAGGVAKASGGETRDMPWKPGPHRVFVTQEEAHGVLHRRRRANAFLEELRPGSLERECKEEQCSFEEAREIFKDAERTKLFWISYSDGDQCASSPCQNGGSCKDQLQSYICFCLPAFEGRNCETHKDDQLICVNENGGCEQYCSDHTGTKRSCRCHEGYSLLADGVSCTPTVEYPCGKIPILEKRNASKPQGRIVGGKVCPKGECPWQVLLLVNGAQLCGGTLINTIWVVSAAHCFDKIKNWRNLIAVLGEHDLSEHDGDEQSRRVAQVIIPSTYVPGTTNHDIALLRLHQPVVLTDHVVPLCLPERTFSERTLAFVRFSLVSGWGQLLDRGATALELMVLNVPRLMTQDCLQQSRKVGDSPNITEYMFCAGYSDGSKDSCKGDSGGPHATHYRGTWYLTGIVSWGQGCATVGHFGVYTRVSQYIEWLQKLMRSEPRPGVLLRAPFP

Coagulation factor VII [3] = biological target: T1, Coagulation factor VII; assay: Inhibition of recombinant F7a using S-2288 as substrate after 15 mins by competitive binding assay
[4] = biological target: T2, Coagulation factor VII (Homo sapiens) (UniProt P08709); assay: Inhibition of recombinant F7a using S-2288 as substrate after 15 mins by competitive binding assay relative to control
T2 sequence (whole entry): T1 sequence (P08709 whole entry)

Coagulation factor X [5] = biological target: T3, Coagulation factor X (Homo sapiens, UniProt P00742); assay: Inhibition of F10a using S-2288 as substrate after 15 mins by competitive binding assay relative to control
Prothrombin [6] = biological target: T4, Prothrombin (Homo sapiens, UniProt P00734); assay: Inhibition of thrombin using S-2288 as substrate after 15 mins by competitive binding assay relative to control
Coagulation factor X [7] = biological target: T3, Coagulation factor X; assay: Inhibition of F10a using S-2288 as substrate after 15 mins by competitive binding assay
Prothrombin [8] = biological target: T4, Prothrombin; assay: Inhibition of thrombin using S-2288 as substrate after 15 mins by competitive binding assay

Structure (SMILES) | solubility [1] [µM] | IC50 (Coagulation factor VII [3]) [µM] | also measured
Cc1c(C)c(S(=O)(=O)NC(=N)NCCCC[C@H](NC(=O)[C@@H](NC(=O)[C@H](Cc2ccc(OCc3ccccc3)cc2)NS(=O)(=O)Cc2ccccc2)[C@@H](C)OCc2ccccc2)C(=O)Cc2ccccc2)c(C)c2c1OC(C)(C)CC2 | 400 (≈ 451 µg/mL) | – | –
N=C(N)NCCC[C@H](NC(=O)[C@H](Cc1ccccc1)NC(=O)[C@H](Cc1ccccc1)NC(=O)OCc1ccccc1)C(=O)Cc1ccccc1 | 400 (≈ 271 µg/mL) | 109 | Ki (Coagulation factor VII [2]): 89 µM
Cc1c(C)c(S(=O)(=O)NC(=N)NCCCC[C@H](NC(=O)[C@H](Cc2ccccc2)NC(=O)[C@@H](Cc2ccccc2)NC(=O)OCc2ccccc2)C(=O)Cc2ccccc2)c(C)c2c1OC(C)(C)CC2 | 400 (≈ 383 µg/mL) | – | –
CC(C)C[C@H](NC(=O)[C@H](Cc1ccccc1)NS(=O)(=O)Cc1ccccc1)C(=O)N[C@@H](CCCNC(=N)N)C(=O)Cc1ccccc1 | 400 (≈ 265 µg/mL) | > 580 | –
N=C(N)NCCC[C@H](NC(=O)[C@H](Cc1ccccc1)NC(=O)[C@@H](Cc1ccccc1)NS(=O)(=O)Cc1ccccc1)C(=O)Cc1ccccc1 | 400 (≈ 279 µg/mL) | 640 | –
C[C@@H](O)[C@H](NC(=O)[C@@H](N)Cc1ccc(O)cc1)C(=O)N[C@@H](CCCCNC(=N)N)C(=O)Cc1ccccc1 | – | – | inhibition [4]: 18.9%; inhibition (Coagulation factor X [5]): 30.4%; inhibition (Prothrombin [6]): 5.5%
Cc1c(C)c(S(=O)(=O)NC(=N)NCCC[C@H](NC(=O)[C@H](CC(C)C)NC(=O)OC(C)(C)C)C(=O)Cc2ccccc2)c(C)c2c1OC(C)(C)CC2 | 400 (≈ 291 µg/mL) | – | –
N=C(N)NCCC[C@H](NC(=O)[C@H](Cc1ccccc1)NC(=O)[C@@H](N)Cc1ccccc1)C(=O)Cc1ccccc1 | 400 (≈ 217 µg/mL) | > 1480 | –
Cc1c(C)c(S(=O)(=O)NC(=N)NCCCC[C@H](NC(=O)[C@H](CC(C)C)NC(=O)[C@H](Cc2ccc(OCc3ccccc3)cc2)NS(=O)(=O)Cc2ccccc2)C(=O)Cc2ccccc2)c(C)c2c1OC(C)(C)CC2 | 400 (≈ 420 µg/mL) | – | –
CC(=O)N[C@@H](Cc1ccccc1)C(=O)N[C@@H](Cc1ccccc1)C(=O)N[C@@H](CCCNC(=N)N)C(=O)Cc1ccccc1 | 400 (≈ 234 µg/mL) | > 400 | –
Cc1c(C)c(S(=O)(=O)NC(=N)NCCC[C@H](NC(=O)[C@H](Cc2ccccc2)NC(=O)OC(C)(C)C)C(=O)Cc2ccccc2)c(C)c2c1OC(C)(C)CC2 | 400 (≈ 305 µg/mL) | – | –
Cc1c(C)c(S(=O)(=O)NC(=N)NCCCC[C@H](NC(=O)[C@H](Cc2ccccc2)NC(=O)[C@H](Cc2ccccc2)NC(=O)OCc2ccccc2)C(=O)Cc2ccccc2)c(C)c2c1OC(C)(C)CC2 | 400 (≈ 383 µg/mL) | – | –
Cc1c(C)c(S(=O)(=O)NC(=N)NCCCC[C@H](NC(=O)[C@H](Cc2ccccc2)NC(=O)[C@H](Cc2ccccc2)NC(=O)OC(C)(C)C)C(=O)Cc2ccccc2)c(C)c2c1OC(C)(C)CC2 | 400 (≈ 369 µg/mL) | – | –
Cc1c(C)c(S(=O)(=O)NC(=N)NCCCC[C@H](NC(=O)[C@H](CC(C)C)NC(=O)[C@H](Cc2ccc(OCc3ccccc3)cc2)NC(=O)OC(C)(C)C)C(=O)Cc2ccccc2)c(C)c2c1OC(C)(C)CC2 | 400 (≈ 398 µg/mL) | – | –
N=C(N)NCCC[C@H](NC(=O)[C@H](Cc1ccccc1)NC(=O)[C@H](Cc1ccccc1)NS(=O)(=O)Cc1ccccc1)C(=O)Cc1ccccc1 | 400 (≈ 279 µg/mL) | 26 | Ki (Coagulation factor VII [2]): 43 µM
CC(=O)N[C@@H](Cc1ccccc1)C(=O)N[C@@H](Cc1ccccc1)C(=O)N[C@@H](CCCCNC(=N)NS(=O)(=O)c1c(C)c(C)c2c(c1C)CCC(C)(C)O2)C(=O)Cc1ccccc1 | 400 (≈ 346 µg/mL) | – | –
CC(=O)N[C@@H](Cc1ccc(OCc2ccccc2)cc1)C(=O)N[C@H](C(=O)N[C@@H](CCCCNC(=N)NS(=O)(=O)c1c(C)c(C)c2c(c1C)CCC(C)(C)O2)C(=O)Cc1ccccc1)[C@@H](C)OCc1ccccc1 | 400 (≈ 406 µg/mL) | – | –
N=C(N)NCCC[C@H](NC(=O)[C@H](Cc1ccccc1)NC(=O)[C@@H](Cc1ccccc1)NC(=O)OCc1ccccc1)C(=O)Cc1ccccc1 | 400 (≈ 271 µg/mL) | 16 | Ki (Coagulation factor VII [2]): 8 µM
Cc1c(C)c(S(=O)(=O)NC(=N)NCCCC[C@H](NC(=O)[C@H](CC(C)C)NC(=O)[C@H](Cc2ccccc2)NC(=O)OC(C)(C)C)C(=O)Cc2ccccc2)c(C)c2c1OC(C)(C)CC2 | 400 (≈ 356 µg/mL) | – | –
C[C@@H](O)[C@H](NC(=O)[C@@H](N)Cc1ccc(O)cc1)C(=O)N[C@@H](CCCNC(=N)N)C(=O)Cc1ccccc1 | 400 (≈ 205 µg/mL) | > 1340 | –
CC(=O)N[C@@H](Cc1ccc(O)cc1)C(=O)N[C@H](C(=O)N[C@@H](CCCNC(=N)N)C(=O)Cc1ccccc1)[C@@H](C)O | 400 (≈ 222 µg/mL) | > 1340 | –
Cc1c(C)c(S(=O)(=O)NC(=N)NCCC[C@H](NC(=O)[C@@H](NC(=O)OC(C)(C)C)[C@@H](C)OCc2ccccc2)C(=O)Cc2ccccc2)c(C)c2c1OC(C)(C)CC2 | 400 (≈ 322 µg/mL) | – | –
C[C@@H](O)[C@H](NC(=O)[C@@H](N)Cc1ccc(O)cc1)C(=O)N[C@@H](CCCCN=C(N)N)C(=O)Cc1ccccc1 | – | – | IC50 (Coagulation factor X [7]): > 1340 µM; IC50 (Prothrombin [8]): > 1340 µM
Cc1c(C)c(S(=O)(=O)NC(=N)NCCCC[C@H](NC(=O)[C@H](Cc2ccccc2)NC(=O)[C@@H](Cc2ccccc2)NC(=O)OC(C)(C)C)C(=O)Cc2ccccc2)c(C)c2c1OC(C)(C)CC2 | 400 (≈ 369 µg/mL) | – | –
